Ki data for 37 compounds are collected here from patent US6620839B2, “1,3-disubstituted and 1,3,3-trisubstituted pyrrolidines as histamine-3 receptor ligands and their therapeutic applications” (Abbott Laboratories, priority 2000, dated 2003).

For this assay, the target named is T1, histamine-3 receptor (Rattus norvegicus, UniProt Q9QYN8).
T1 construct: from tissue; host or cells: male Sprague-Dawley rat brain cortex membranes
T1 sequence (Q9QYN8 whole entry): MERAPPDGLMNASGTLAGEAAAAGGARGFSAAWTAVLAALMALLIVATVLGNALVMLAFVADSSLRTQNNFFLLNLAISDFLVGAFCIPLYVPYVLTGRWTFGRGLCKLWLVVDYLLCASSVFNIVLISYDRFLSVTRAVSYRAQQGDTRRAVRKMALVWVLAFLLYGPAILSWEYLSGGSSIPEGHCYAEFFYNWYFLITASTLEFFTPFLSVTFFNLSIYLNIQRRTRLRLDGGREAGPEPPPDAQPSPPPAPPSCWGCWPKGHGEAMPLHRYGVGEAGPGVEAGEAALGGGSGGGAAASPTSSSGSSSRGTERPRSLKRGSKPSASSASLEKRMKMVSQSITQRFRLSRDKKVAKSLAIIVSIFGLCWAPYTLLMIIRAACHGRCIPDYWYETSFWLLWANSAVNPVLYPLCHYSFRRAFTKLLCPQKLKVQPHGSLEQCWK
The assay is described as follows: Histamine-3 receptor binding, (3H)-N-α-methylhistamine displacement in rat cortical membranes. The following applies: male Sprague-Dawley rat brain cortical membranes; (3H)-N-α-methylhistamine ~0.6 nM; 30 minutes at 25° C.; Cheng-Prusoff. The method, then:
Briefly, male Sprague-Dawley rat brain cortices were homogenized (1 g tissue/10 mL buffer) in 50 mM Tris-HCl/5 mM EDTA containing protease inhibitor cocktail (Calbiochem) using a polytron set at 20,500 rpm. Homogenates were centrifuged for 20 minutes at 40,000×g. The supernatant was decanted, and pellets were weighed. The pellet was resuspended by polytron homogenization in 40 mL 50 mM Tris-HCl/5 mM EDTA with protease inhibitors and centrifuged for 20 minutes at 40,000×g. […] Test compounds were dissolved in DMSO to provide 20 mM solution, serially diluted and then added to the incubation mixtures prior to initiating the incubation assay by addition of the membranes. Thioperamide (3 μM) was used to determine nonspecific binding. Binding incubations were conducted for 30 minutes at 25° C. and terminated by addition of 2 mL of ice cold 50 mM Tris-HCl (pH 7.7) and filtration through 0.3% polyethylenimine-soaked Unifilter plates (Packard). These filters were washed 4 additional times with 2 mL of ice-cold 50 mM Tris-HCl and dried for 1 hour. Radioactivity was determined using liquid scintillation counting techniques. Results were analyzed by Hill transformation and Ki values were determined using the Cheng-Prusoff equation.
Turning to `Cc1ccc(S(=O)(=O)N[C@@H]2CCN(CCCOc3ccc(C(=O)C4CC4)cc3)C2)cc1` [Example 61, N-((3R)-1-{3-[4-(cyclopropylcarbonyl)phenoxy]propyl}pyrrolidinyl)-4-methylbenzenesulfonamide], the Ki (in general, a dissociation constant, usually derived from enzyme kinetics or from competition with a known ligand) was determined as 4.2 nM.

`CC(=O)c1ccc(OCCCN2CC[C@@H](NS(=O)(=O)c3ccc(Oc4ncc(C(F)(F)F)cc4Cl)cc3)C2)cc1` [Example 79, N-{(3R)-1-[3-(4-acetylphenoxy)propyl]pyrrolidinyl}-4-{[3-chloro-5-(trifluoromethyl)-2-pyridinyl]oxy}benzenesulfonamide]: the Ki is 7.9 nM.

Compound `CC(=O)Nc1ccc(S(=O)(=O)N[C@@H]2CCN(CCCOc3ccc(C(C)=O)cc3)C2)cc1Cl` [Example 76, N-{4-[({(3R)-1-[3-(4-acetylphenoxy)propyl]pyrrolidinyl}amino)sulfonyl]-2-chlorophenyl}acetamide] had a Ki of 4.9 nM.

Turning to `CN(C(=O)CC(C)(C)C)[C@@H]1CCN(CCCOc2ccc(-c3ccc(C#N)cc3)cc2)C1` [Example 112], the Ki stood at 13 nM.

The compound `CC(=O)Nc1ccc(S(=O)(=O)N[C@@H]2CCN(CCCOc3ccc(C(=O)C4CC4)cc3)C2)cc1Cl` [Example 96, N-(2-chloro-4-{[((3R)-1-{3-[4-(cyclopropylcarbonyl)phenoxy]propyl}pyrrolidinyl)amino]sulfonyl}phenyl)acetamide] came in with a Ki of 1.2 nM.

As for `O=C(c1ccc(OCCCN2CC[C@@H](NS(=O)(=O)c3cc(C(F)(F)F)cc(C(F)(F)F)c3)C2)cc1)C1CC1` [Example 83, N-((3R)-1-{3-[4-(cyclopropylcarbonyl)phenoxy]propyl}pyrrolidinyl)-3,5-bis(trifluoromethyl)benzenesulfonamide], affinity was put at a Ki of 23 nM.

Regarding `CN(C(=O)c1ccco1)[C@@H]1CCN(CCCOc2ccc(-c3ccc(C#N)cc3)cc2)C1` [Example 122], the Ki came to 20 nM.

`Cc1cc(OCCCN2CC[C@@H](N(C)C)C2)ccc1-c1ccc(C#N)cc1` [Example 170, 4′-{3-[(3R)-3-(dimethylamino)-1-pyrrolidinyl]propoxy}-2′-methyl-1,1′-biphenyl-4-carbonitrile] gave an inhibition constant (Ki) of 51 nM.

`COc1ccc(OC)c(S(=O)(=O)N[C@@H]2CCN(CCCOc3ccc(C(=O)C4CC4)cc3)C2)c1` [Example 63, N-((3R)-1-{3-[4-(cyclopropylcarbonyl)phenoxy]propyl}pyrrolidinyl)-2,5-dimethoxybenzenesulfonamide] registered a Ki of 12 nM.

As to `O=C(c1ccc(OCCCN2CC[C@@H](NS(=O)(=O)c3ccc(Cl)c(Cl)c3)C2)cc1)C1CC1` [Example 97, 3,4-dichloro-N-((3R)-1-{3-[4-(cyclopropylcarbonyl)phenoxy]propyl}pyrrolidinyl)benzenesulfonamide], the affinity, expressed as Ki, was 6.7 nM.

`N#Cc1ccc(-c2ccc(OCCCN3CC[C@@H](NS(=O)(=O)c4ccc5ccncc5c4)C3)cc2)cc1` [Example 52] registered a Ki of 15 nM.

`Cc1ccccc1S(=O)(=O)N[C@@H]1CCN(CCCOc2ccc(-c3ccc(C#N)cc3)cc2)C1` [Example 25] gave a Ki of 30 nM.

`N#Cc1ccc(-c2ccc(OCCCN3CC[C@@H](NS(=O)(=O)c4ccccc4)C3)cc2)cc1` [Example 15] registered a Ki of 7.3 nM.

`CN(C(=O)OC(C)(C)C)[C@@H]1CCN(CCCOc2ccc(-c3ccc(C#N)cc3)cc2)C1` [Example 109, tert-butyl (3R)-1-{3-[(4′-cyano[1,1′-biphenyl]-4-yl)oxy]propyl}pyrrolidinyl(methyl)carbamate] gave a Ki of 26 nM.

`N#Cc1ccc(-c2ccc(OCCCN3CC[C@@H](NS(=O)(=O)c4ccccc4Cl)C3)cc2)cc1` [Example 30, 2-chloro-N-((3R)-1-{3-[(4′-cyano[1,1′-biphenyl]-4-yl)oxy]propyl}pyrrolidinyl)benzenesulfonamide] gave a Ki of 10 nM.

In the case of `N#Cc1cccc(S(=O)(=O)N[C@@H]2CCN(CCCOc3ccc(C(=O)C4CC4)cc3)C2)c1` [Example 71, 3-cyano-N-((3R)-1-{3-[4-(cyclopropylcarbonyl)phenoxy]propyl}pyrrolidinyl)benzenesulfonamide], the affinity corresponds to a Ki of 2.8 nM. This Ki lies about 3.6-fold lower than the previous one.

“N-((3R)-1-{3-[4-(cyclopropylcarbonyl)phenoxy]propyl}pyrrolidinyl)-4-isopropylbenzenesulfonamide [Example 67]” registered a Ki of 2.9 nM.

For the compound `CCc1ccc(S(=O)(=O)N[C@@H]2CCN(CCCOc3ccc(C(=O)C4CC4)cc3)C2)cc1` [Example 66, N-((3R)-1-{3-[4-(cyclopropylcarbonyl)phenoxy]propyl}pyrrolidinyl)-4-ethylbenzenesulfonamide], the Ki turned out to be 4.6 nM.

Regarding `Cc1c(S(=O)(=O)N[C@@H]2CCN(CCCOc3ccc(C(=O)C4CC4)cc3)C2)sc2ccc(Cl)cc12` [Example 82, 5-chloro-N-((3R)-1-{3-[4-(cyclopropylcarbonyl)phenoxy]propyl}pyrrolidinyl)-3-methyl-1-benzothiophene-2-sulfonamide], the affinity corresponds to a Ki of 21 nM.

In turn, `CN(C(=O)c1csc(-c2cccnc2)n1)[C@@H]1CCN(CCCOc2ccc(-c3ccc(C#N)cc3)cc2)C1` [Example 123] had a Ki of 5.6 nM.

`CC(=O)c1ccc(OCCCN2CC[C@@H](NS(=O)(=O)c3cccn3-c3ncc(C(F)(F)F)cc3Cl)C2)cc1` [Example 78, N-{(3R)-1-[3-(4-acetylphenoxy)propyl]pyrrolidinyl}-1-[3-chloro-5-(trifluoromethyl)-2-pyridinyl]-1H-pyrrole-2-sulfonamide] returned a Ki of 8.7 nM.

`Cn1cnc(S(=O)(=O)N[C@@H]2CCN(CCCOc3ccc(-c4ccccn4)cc3)C2)c1` [Example 105, 1-methyl-N-((3R)-1-{3-[4-(2-pyridinyl)phenoxy]propyl}pyrrolidinyl)-1 H-imidazole-4-sulfonamide] returned an inhibitory constant (Ki) of 725 nM.

Compound `CC(=O)c1ccc(OCCCN2CC[C@@H](N3C(=O)N[C@@H](C)C3=O)C2)cc1` [Example 9, (5S)-3-{(3R)-1-[3-(4-acetylphenoxy)propyl]pyrrolidinyl}-5-methyl-2,4-imidazolidinedione] had a Ki of 675 nM. The Ki values of the last two compounds are within 1.5-fold of each other.

`COc1cc(-c2ccc(C#N)cc2)ccc1OCCCN1CC[C@@H](N(C)C)C1` [Example 173, 4′-{3-[(3R)-3-(dimethylamino)-1-pyrrolidinyl]propoxy}-3′-methoxy-1,1′-biphenyl-4-carbonitrile] displayed a Ki of 27 nM.

Compound `N#Cc1ccc(-c2ccc(OCCCN3CC[C@@H](NS(=O)(=O)c4cccc(F)c4)C3)cc2)cc1` [Example 49] displayed a Ki of 13 nM.

In turn, `N#Cc1ccc(S(=O)(=O)N[C@@H]2CCN(CCCOc3ccc(C(=O)C4CC4)cc3)C2)cc1` [Example 11, 4-cyano-N-((3R)-1-{3-[4-(cyclopropylcarbonyl)phenoxy]propyl}pyrrolidinyl)benzenesulfonamide] showed a Ki of 4 nM. Against the preceding compound, the Ki is about 3.2-fold lower.

Regarding `CC(=O)c1ccc(OCCCN2CC[C@@H](NC(=O)CSc3nccc(C)n3)C2)cc1` [Example 2, N-{(3R)-1-[3-(4-acetylphenoxy)propyl]pyrrolidinyl}-2-[(4-methyl-2-pyrimidinyl)sulfanyl]acetamide], the Ki amounted to 68 nM.

`CN(C(=O)c1ccc(C#N)cc1)[C@@H]1CCN(CCCOc2ccc(-c3ccc(C#N)cc3)cc2)C1` [Example 120, 4-cyano-N-((3R)-1-{3-[(4′-cyano[1,1′-biphenyl]-4-yl)oxy]propyl}pyrrolidinyl)-N-methylbenzamide] showed a Ki of 10 nM. Against the preceding compound, the Ki is about 6.8-fold lower.

The compound `N#Cc1ccc(-c2ccc(OCCCN3CC[C@@H](NS(=O)(=O)c4ccc(Cl)cc4)C3)cc2)cc1` [Example 18, 4-chloro-N-((3R)-1-{3-[(4′-cyano[1,1′-biphenyl]-4-yl)oxy]propyl}pyrrolidinyl)benzenesulfonamide] registered a Ki of 29 nM. Compared with the last compound, the Ki is about 2.9-fold higher.

For the compound `N#Cc1ccc(-c2ccc(OCCCN3CC[C@@H](NS(=O)(=O)c4ccc(F)cc4F)C3)cc2)cc1` [Example 51], the affinity, expressed as Ki, was 9.3 nM.

`C=CCOC(=O)N[C@@H]1CCN(CCCOc2ccc(-c3ccc(C#N)cc3)cc2)C1` [Example 132, allyl (3R)-1-{3-[(4′-cyano[1,1′-biphenyl]-4-yl)oxy]propyl}pyrrolidinylcarbamate] returned a Ki of 74 nM.

Take `CN(C)[C@@H]1CCN(CCCOc2ccc(-c3ccc(C#N)cc3)cc2F)C1` [Example 167, 4′-{3-[(3R)-3-(dimethylamino)-1-pyrrolidinyl]propoxy}-3′-fluoro-1,1′-biphenyl-4-carbonitrile]: affinity was put at a Ki of 9 nM.

Take `N#Cc1ccc(-c2ccc(OCCCN3CC[C@@H](NS(=O)(=O)c4ccc(F)c(Cl)c4)C3)cc2)cc1` [Example 26, 3-chloro-N-((3R)-1-{3-[(4′-cyano[1,1′-biphenyl]-4-yl)oxy]propyl}pyrrolidinyl)-4-fluorobenzenesulfonamide]: the affinity corresponds to a Ki of 57 nM.

`N#Cc1ccc(-c2ccc(OCCCN3CC[C@@H](NS(=O)(=O)c4ccc(C(F)(F)F)cc4)C3)cc2)cc1` [Example 48] gave an inhibition constant Ki of 60 nM.

`CN(C(=O)N1CCCC1)[C@@H]1CCN(CCCOc2ccc(-c3ccc(C#N)cc3)cc2)C1` [Example 116] gave a Ki of 14 nM.

The compound “N-{(3R)-1-[3-(4-acetylphenoxy)propyl]pyrrolidinyl}-4-(trifluoromethoxy)benzenesulfonamide [Example 73]” came in with a Ki of 6.4 nM.

In the case of `CC(=O)c1ccc(OCCCN2CC[C@@H](NS(=O)(=O)c3ccc(F)cc3F)C2)cc1` [Example 74, N-{(3R)-1-[3-(4-acetylphenoxy)propyl]pyrrolidinyl}-2,4-difluorobenzenesulfonamide], affinity was put at a Ki of 5.6 nM.
